In one experiment the test system is P388. The experiment in a line: Cytotoxicity against mouse P388 cells. Type of experiment: functional, cell-based.
A further experiment concerns A549. Kind of experiment: Cytotoxicity against human A549 cells. Type of experiment: functional, cell-based.

Each structure is given as a SMILES string. ≈ marks a conversion by molar mass, not a printed value.

In the case of `C=C1CCC[C@H]2[C@](C)(CC(=O)C3=C(O)C(OC)OC3=O)[C@@H](C)CC[C@]12C` (some centres not stated) [DACTYLTRONIC ACID], the IC50 with P388 and with A549 was 10 mg/L (≈ 27.6 µM) throughout.

The values are drawn from ChEMBL document CHEMBL1148045, “Dactyltronic acids from the sponge Dactylospongia elegans” (J Nat Prod, 1994).
